Calls of active or inactive are those of the source. The rule behind the calls is not given here.
Legend:
Homo sapiens [1] = organism: Homo sapiens; test: Immunomodulatory activity in human PMNC assessed as induction of CD69 expression at 375 uM within 10 mins by FACS analysis; format: functional
[2] = Metabolic stability in human NK cells assessed as formation of 4-hydroxydodecanoic acid at 375 uM after 3 hrs by RP-HPLC analysis; format: ADME, cell-based
PBMC [3] = test: Cellular uptake in human PBMC pellet solution after 30 mins by GC analysis; format: ADME, cell-based; settings: 0.5 h
PBMC [4] = test: Cellular uptake in human PBMC pellet solution after 1 hr by GC analysis; format: ADME, cell-based
PBMC [5] = test: Cellular uptake in human PBMC after 2 hrs by GC analysis; format: ADME, cell-based
PBMC [6] = test: Cellular uptake in human PBMC after 3 hrs by GC analysis; format: ADME, cell-based
[7] = Immunomodulatory activity in human PMNC assessed as induction of FasL expression at 375 uM after 24 hrs by FITC-conjugated flow cytometry relative to control; format: functional
HepG2 = test: Immunomodulatory activity in human HepG2 cells assessed as induction of innate immunity-mediated cytotoxicity at 375 uM after 24 hrs by fluorescence microscopy; format: functional, cell-based
PBMC [8] = test: Cellular uptake in human PBMC residual solution after 30 mins by GC analysis; format: ADME, cell-based; settings: 0.5 h
[9] = Cellular uptake in human NK cells at 500 uM after 20 mins by GC analysis; format: ADME, cell-based
PBMC [10] = test: Cellular uptake in human PBMC residual solution after 3 hrs by GC analysis; format: ADME, cell-based
[11] = Immunomodulatory activity in human PMNC assessed as induction of CD69 expression at 200 uM after 24 hrs by FACS analysis; format: functional
Homo sapiens [12] = organism: Homo sapiens; test: Immunomodulatory activity in human PMNC assessed as induction of CD69 expression after 24 hrs by FITC-conjugated flow cytometry; format: functional
NK [13] = test: Immunomodulatory activity in human NK cells assessed as induction of FASLG gene expression at 375 uM after 4 hrs by RT-PCR analysis; format: functional, cell-based
PBMC [14] = test: Cellular uptake in human PBMC pellet solution after 2 hrs by GC analysis; format: ADME, cell-based
PBMC [15] = test: Cellular uptake in human PBMC nucleus residual solution after 20 mins by GC analysis; format: ADME, cell-based
PBMC [16] = test: Cellular uptake in human PBMC nucleus residual solution after 2 hrs by GC analysis; format: ADME, cell-based
PBMC [17] = test: Cellular uptake in human PBMC nucleus after 10 mins by GC analysis; format: ADME, cell-based
NK [18] = test: Immunomodulatory activity in human NK cells assessed as induction of IFNG gene expression at 375 uM after 4 hrs by RT-PCR analysis; format: functional, cell-based
PBMC [19] = test: Cellular uptake in human PBMC after 30 mins by GC analysis; format: ADME, cell-based; settings: 0.5 h
PBMC [20] = test: Cellular uptake in human PBMC nucleus after 2 hrs by GC analysis; format: ADME, cell-based
PBMC [21] = test: Cellular uptake in human PBMC residual solution after 2 hrs by GC analysis; format: ADME, cell-based
PBMC [22] = test: Cellular uptake in human PBMC pellet solution after 10 mins by GC analysis; format: ADME, cell-based
PBMC [23] = test: Cellular uptake in human PBMC pellet solution after 3 hrs by GC analysis; format: ADME, cell-based
PBMC [24] = test: Cellular uptake in human PBMC after 20 mins by GC analysis; format: ADME, cell-based
PBMC [25] = test: Cellular uptake in human PBMC after 10 mins by GC analysis; format: ADME, cell-based
PBMC [26] = test: Cellular uptake in human PBMC nucleus after 1 hr by GC analysis; format: ADME, cell-based
NK [27] = test: Immunomodulatory activity in human NK cells assessed as induction of IL2 gene expression at 375 uM after 4 hrs by RT-PCR analysis; format: functional, cell-based
[28] = Metabolic stability in human NK cells assessed as conversion to 4-hydroxydodecanoic acid at 375 uM after 45 mins by RP-HPLC analysis; format: ADME, cell-based; settings: 0.75 h
PBMC [29] = test: Cellular uptake in human PBMC after 1 hr by GC analysis; format: ADME, cell-based
NK [30] = test: Immunomodulatory activity in human NK cells assessed as induction of TNF gene expression at 375 uM after 4 hrs by RT-PCR analysis; format: functional, cell-based
PBMC [31] = test: Cellular uptake in human PBMC nucleus after 20 mins by GC analysis; format: ADME, cell-based
[32] = Immunomodulatory activity in human PMNC assessed as induction of CD69 expression at 100 uM after 24 hrs by FACS analysis; format: functional
[33] = Cytotoxicity human PMNC up to 375 uM after 48 hrs by WST assay
PBMC [34] = test: Cellular uptake in human PBMC nucleus after 30 mins by GC analysis; format: ADME, cell-based; settings: 0.5 h
PBMC [35] = test: Cellular uptake in human PBMC nucleus assessed per mg of protein after 1 hr by GC analysis; format: ADME, cell-based
PBMC [36] = test: Cellular uptake in human PBMC residual solution after 20 mins by GC analysis; format: ADME, cell-based
PBMC [37] = test: Cellular uptake in human PBMC nucleus assessed per mg of protein after 30 mins by GC analysis; format: ADME, cell-based; settings: 0.5 h
PBMC [38] = test: Cellular uptake in human PBMC nucleus assessed per mg of protein after 10 mins by GC analysis; format: ADME, cell-based
PBMC [39] = test: Cellular uptake in human PBMC nucleus assessed per mg of protein after 20 mins by GC analysis; format: ADME, cell-based
NK [40] = test: Immunomodulatory activity in human NK cells assessed as induction of CD69 gene expression at 375 uM after 4 hrs by RT-PCR analysis; format: functional, cell-based
PBMC [41] = test: Cellular uptake in human PBMC residual solution after 1 hr by GC analysis; format: ADME, cell-based
PBMC [42] = test: Cellular uptake in human PBMC nucleus residual solution after 1 hr by GC analysis; format: ADME, cell-based
[43] = Immunomodulatory activity in human PMNC assessed as induction of CD69 expression at 375 uM after 24 hrs by FACS analysis; format: functional
PBMC [44] = test: Cellular uptake in human PBMC nucleus assessed per mg of protein after 2 hrs by GC analysis; format: ADME, cell-based
PBMC [45] = test: Cellular uptake in human PBMC nucleus residual solution after 10 mins by GC analysis; format: ADME, cell-based
PBMC [46] = test: Cellular uptake in human PBMC nucleus residual solution after 30 mins by GC analysis; format: ADME, cell-based; settings: 0.5 h
[47] = Immunomodulatory activity in human PMNC assessed as induction of GraB expression at 375 uM after 24 hrs by FITC-conjugated flow cytometry relative to control; format: functional
NK [48] = test: Immunomodulatory activity in human NK cells assessed as induction of GZMB gene expression at 375 uM after 4 hrs by RT-PCR analysis; format: functional, cell-based
PBMC [49] = test: Cellular uptake in human PBMC residual solution after 10 mins by GC analysis; format: ADME, cell-based
PBMC [50] = test: Cellular uptake in human PBMC pellet solution after 20 mins by GC analysis; format: ADME, cell-based
[51] = Immunomodulatory activity in human PMNC assessed as induction of CD69 expression at 20 ng/ml after 24 hrs by FACS analysis; format: functional

CCCCCCCC[C@@H](O)CCC(=O)O
Activity (Homo sapiens [1]): Active

CCCCCCCCC(O)CCC(=O)O (centres undefined)
Stability [2]: Unstable | Activity (Homo sapiens [1]): Active

CCCCCCCC[C@H]1CCC(=O)O1
Drug uptake (PBMC [3]): 0.008 µg | Drug uptake (PBMC [4]): 0.007 µg | Drug uptake (PBMC [5]): 0.009 µg | Drug uptake (PBMC [6]): 0 µg | fold change (FC) [7]: 2.5 | Activity (HepG2): Active | Drug uptake (PBMC [8]): 0.019 µg | Drug uptake [9]: 18.62 ng | Drug uptake (PBMC [10]): 0 µg | Activity [11]: 13.58% | Activity (Homo sapiens [12]): Dose-dependent effect | Activity (NK [13]): Active | Drug uptake (PBMC [14]): 0 µg | Drug uptake (PBMC [15]): 9.95 ng | Drug uptake (PBMC [16]): 0 ng | Drug uptake (PBMC [17]): 0.791 mg/mL | Activity (NK [18]): Active | Drug uptake (PBMC [19]): 0.027 µg | Drug uptake (PBMC [20]): 0.658 mg/mL | Drug uptake (PBMC [21]): 0.009 µg | Drug uptake (PBMC [22]): 0 µg | Drug uptake (PBMC [23]): 0 µg | Drug uptake (PBMC [24]): 0.022 µg | Drug uptake (PBMC [25]): 0.02 µg | Drug uptake (PBMC [26]): 0.9 mg/mL | Activity (NK [27]): Active | Activity [28]: 29% | Drug uptake (PBMC [29]): 0.017 µg | Activity (NK [30]): Active | Drug uptake (PBMC [31]): 0.774 mg/mL | Activity [32]: 10.51% | Activity [33]: Non-toxic | Drug uptake (PBMC [34]): 0.618 mg/mL | Drug uptake (PBMC [35]): 0.001 ng | Drug uptake (PBMC [36]): 0.015 µg | Drug uptake (PBMC [37]): 0.016 ng | Drug uptake (PBMC [38]): 0.011 ng | Drug uptake (PBMC [39]): 0.013 ng | Activity (NK [40]): Active | Drug uptake (PBMC [41]): 0.01 µg | Drug uptake (PBMC [42]): 8.4 ng | Activity [43]: 19.37% | Drug uptake (PBMC [44]): 0 ng | Drug uptake (PBMC [45]): 8.44 ng | Drug uptake (PBMC [46]): 9.95 ng | fold change (FC) [47]: 1.5 | Activity (NK [48]): Active | Drug uptake (PBMC [49]): 0.02 µg | Drug uptake (PBMC [50]): 0.007 µg | Activity [51]: 33.65%

CCCCCCCC[C@H](O)CCC(=O)O
Activity (Homo sapiens [1]): Active
